Assay results reported in the NIST ThermoML archive (doi:10.1016/j.jct.2015.08.014).
± gives the expanded uncertainty stated by the source.

Assay: xn = mol fraction of the nth substance listed
Details: 323.15 K, 100 kPa, Liquid, Alternating current cell with electrodes

CCCC[N+]1(C)CCCC1.N#CN=C=[N-] [1-butyl-1-methylpyrrolidinium dicyanamide] + O=C1CCCO1
electrical conductivity [S/m]
Details | Frequency=0.001 MHz | Frequency=0.0015 MHz | Frequency=0.002 MHz | Frequency=0.0025 MHz | Frequency=0.003 MHz | Frequency=0.00347222 MHz | Frequency=0.004 MHz | Frequency=0.00446429 MHz | Frequency=0.005 MHz | Frequency=0.005454 MHz
x1 = 0.0463 | – | 2 ± 0.037 | 2 ± 0.037 | 2.01 ± 0.037 | 2.01 ± 0.037 | 2.01 ± 0.037 | 2.01 ± 0.037 | 2.01 ± 0.037 | 2.01 ± 0.037 | 2.01 ± 0.037
x1 = 0.0987 | 3.06 ± 0.039 | 3.07 ± 0.039 | 3.07 ± 0.039 | 3.07 ± 0.039 | 3.08 ± 0.039 | 3.08 ± 0.039 | 3.08 ± 0.039 | 3.08 ± 0.039 | 3.08 ± 0.039 | 3.08 ± 0.039
x1 = 0.1449 | 3.56 ± 0.038 | 3.56 ± 0.038 | 3.56 ± 0.038 | 3.56 ± 0.038 | 3.56 ± 0.038 | 3.57 ± 0.038 | 3.57 ± 0.038 | 3.57 ± 0.038 | 3.57 ± 0.038 | 3.57 ± 0.038
x1 = 0.1859 | 3.83 ± 0.039 | 3.84 ± 0.039 | 3.84 ± 0.039 | 3.85 ± 0.039 | 3.85 ± 0.039 | 3.85 ± 0.039 | 3.85 ± 0.039 | 3.85 ± 0.039 | 3.85 ± 0.039 | 3.85 ± 0.039
x1 = 0.2493 | 3.89 ± 0.039 | 3.89 ± 0.039 | 3.89 ± 0.039 | 3.89 ± 0.039 | 3.89 ± 0.039 | 3.89 ± 0.039 | 3.89 ± 0.039 | 3.89 ± 0.039 | 3.89 ± 0.039 | 3.89 ± 0.039
x1 = 0.3029 | 3.86 ± 0.039 | 3.87 ± 0.039 | 3.87 ± 0.039 | 3.87 ± 0.039 | 3.87 ± 0.039 | 3.87 ± 0.039 | 3.87 ± 0.039 | 3.87 ± 0.039 | 3.87 ± 0.039 | 3.88 ± 0.039
x1 = 0.3845 | 3.732 ± 0.037 | 3.73 ± 0.038 | 3.74 ± 0.038 | 3.74 ± 0.038 | 3.74 ± 0.038 | 3.74 ± 0.038 | 3.74 ± 0.038 | 3.74 ± 0.038 | 3.74 ± 0.038 | 3.74 ± 0.038
x1 = 0.4985 | 3.46 ± 0.035 | 3.46 ± 0.035 | 3.46 ± 0.035 | 3.46 ± 0.035 | 3.46 ± 0.035 | 3.46 ± 0.035 | 3.46 ± 0.035 | 3.46 ± 0.035 | 3.46 ± 0.035 | 3.46 ± 0.035
x1 = 0.6954 | 2.99 ± 0.03 | 2.99 ± 0.03 | 2.99 ± 0.03 | 2.99 ± 0.03 | 2.99 ± 0.03 | 2.99 ± 0.03 | 2.99 ± 0.03 | 2.99 ± 0.03 | 2.99 ± 0.03 | 2.99 ± 0.03
x1 = 0.9013 | 2.626 ± 0.026 | 2.628 ± 0.026 | 2.63 ± 0.026 | 2.63 ± 0.026 | 2.631 ± 0.026 | 2.632 ± 0.026 | 2.632 ± 0.026 | 2.632 ± 0.026 | 2.633 ± 0.026 | –
x1 = 1 | 2.526 ± 0.025 | 2.527 ± 0.025 | 2.528 ± 0.025 | 2.528 ± 0.025 | 2.528 ± 0.025 | 2.528 ± 0.025 | 2.529 ± 0.025 | 2.529 ± 0.025 | 2.529 ± 0.025 | –
